A short description of assay [1]: high throughput screen of components for modifying calcium oxalate crystal growth (crystal imaging). The procedure: Next, the seed crystals are incubated in supersaturated calcium oxalate medium. This medium may have one or more of components for testing. Nucleation and changes in a crystal property (such as crystal growth) are detected by comparing signals obtained from a sample at different times and/or after changing the medium. For example, a signal for a sample can be taken at the beginning of incubation, and then optionally at one or more times during incubation, and then at the end of incubation. The number and time for obtaining signals from or screening a sample will depend on the particular experiment and will be readily apparent to the skilled artisan. These signals or screens of samples may be photographs of birefringent spots, the size of the spots (measured in pixels), calculations based on the pixels and their distribution in a birefringence- or plain light-based image, in-situ Raman spectroscopy to monitor growth or determine the composition of one or more crystals, signals for the concentration of component(s) in the medium, and the like.
FIG. 2 illustrates one such embodiment. Sodium oxalate and calcium chloride solutions are prepared during steps 200 and 205 respectively. Following mixing during step 210 to obtain supersaturated calcium oxalate medium, also described in FIG. 1, monitoring while incubating during step 215 detects the formation of seed crystals. Next, the medium is removed during step 220 followed by addition of fresh medium containing test components during step 225. The test component(s) are preferably added to the sodium oxalate solution used to make the medium. Alternatively, they could be added in the calcium chloride solution for making the medium, or in a separate solution, or as solids, or even mixed in, or any combination thereof.
Some processing of arrays is also seen in the method illustrated in FIG. 2. Further incubation of seed crystals during step 230 and imaging during step 235 provide data about the growth and/or nucleation of crystals. The high throughput method of FIG. 2 includes estimating a nucleation and/or growth rate from a number of birefringent spots. An increase in the nucleation rate, or observing little or no crystal growth, ascribable to a component may indicate a therapeutic use for treating diseases, conditions, or disorders associated with calculi or crystal deposition (e.g., nephrolithiasis) by reducing the average size of the crystals, stones or calculi to facilitate excretion. Alternatively, a significant decrease in the nucleation rate ascribable to a component may indicate a therapeutic use for treating diseases, conditions, or disorders associated with calculi or crystal deposition (e.g., nephrolithiasis) by decreasing the rate of stone or calculi formation.
The photograph of the illuminated crystals, e.g., obtained in step 235 of FIG. 2, may be further analyzed to estimate a number of pixels corresponding to a crystal spot.
Other properties of crystals may also be obtained from the pixel measurements in step 240 of FIG. 2. The photograph of the illuminated crystals also allows an estimate of a long and a short dimension among many possible measures. These reflect the habit of the crystal spot and may be used to predict crystals that are likely to be excreted more easily. For instance, small and even shaped crystals are more likely to be excreted than spiny crystal shapes, thus permitting high throughput screening for promising therapeutic candidates.
In FIG. 7, during step 700 one or more substances of interest are identified. […] The identified substances, added in solutions of calcium chloride or sodium oxalate, are subjected to screening via a high-throughput growth inhibitor screen during step 705. Accordingly, growth of crystals in supersaturated calcium oxalate medium is observed in the presence or absence of identified substances. Such growth may be of seed crystals or may include nucleation of crystals as well as growth.

Assay [2] is described as follows: turbidity based assay of crystal nucleation and growth in supersaturated calcium oxalate solutions. The settings on record: FIG. 10 and FIG. 11. The source says: FIG. 10 illustrates the effect of citrate on growth and nucleation of crystals in supersaturated calcium oxalate solutions as measured by turbidity at 620 nm.
FIG. 11 is an example of turbidity based assay showing crystal nucleation and growth in supersaturated calcium oxalate solutions prepared in accordance with the method of FIG. 1.
The system also includes means for preparing metastable formulations such as supersaturated solutions. In a preferred design, supersaturated media for nucleating and growing crystals are prepared by mixing two stable components to give rise to a metastable supersaturated solution. […] This supersaturated mixture may be monitored after incubation for a predetermined duration during step 115. […]
Preferably, calcium oxalate crystals are also used to seed the supersaturated calcium oxalate solution in some samples to assess their growth or the lack thereof. Absorbance at about 620 nm provides a measure of turbidity and a decrease in turbidity indicates either aggregation or crystals/precipitate or reduction in the precipitation/crystal growth of calcium oxalate crystals. It should be noted that turbidity may be measured at other wavelengths as well including wavelengths corresponding to visible light and ultraviolet light. Preferably, but not as a requirement, turbidity is measured by evaluating light scattered at an angle to the incident light. […]

The mark [3] stands for this setting: supersaturated calcium oxalate, amounts and concentrations in FIGS. 9A and 9B.

Counter-ions that a name gives are not always drawn. Like-named read-outs stand apart in the source and are kept apart here.

The values that follow come from US20050233461A1, “High-throughput methods and systems for screening of compounds to treat/prevent kidney disorders” (priority 2002, published 2005).

Regarding `O=C(O)[C@H](O)[C@@H](O)[C@H](O[C@@H]1O[C@H](CO)[C@H](O)[C@H](O)[C@H]1O)[C@H](O)CO` [lactobionic acid], in assay [1] (setting [3]), the “overall effect on calcium oxalate crystals (number of crystals)” value was “many small and large crystals”.

For `CC(=O)OC[C@H]1O[C@@](COC(C)=O)(O[C@H]2O[C@H](COC(C)=O)[C@@H](OC(C)=O)[C@H](OC(C)=O)[C@H]2OC(C)=O)[C@@H](OC(C)=O)[C@@H]1OC(C)=O` [sucrose octaacetate], the “overall effect on calcium oxalate crystals (number of crystals)” value in assay [1] (setting [3]) was “increased number (countable) of crystals”.

As to `O=C(O)CC(O)(CC(=O)O)C(=O)O` [sodium citrate], the “turbidity of supersaturated calcium oxalate compared to supersaturated calcium oxalate by itself” value in assay [2] (3 mM sodium citrate, turbidity at 620 nm) is reported as “dramatically reduces the turbidity”. Moreover, the “formation of calcium oxalate crystals in a supersaturated calcium oxalate solution” value in assay [2] is recorded as “effective, although limited, in reducing the formation of calcium oxalate crystals”.

Regarding `CCCCCCCCCCCCCCCCC(C(=O)O)C(O)(CC(=O)O)C(=O)O` (stereo not shown) [agaric acid], in assay [1] (setting [3]), the “crystal habit / form of material observed” value is “formation of an emulsion/suspension”.

Turning to `NS(=O)(=O)c1cc(C(=O)O)c(NCc2ccco2)cc1Cl` [furosemide, reference compound], the “large (intermediate to large) crystals: number / size observed” value (“large … number / size observed” below) in assay [1] (setting [3]) was “many more large crystals”.

As for `CN(C)c1ccc2nc3ccc(=[N+](C)C)cc-3sc2c1` [methylene blue, reference compound], the “large … number / size observed” value in assay [1] (setting [3]) is listed as “reduction in large crystals”.

atrolactic acid hemihydrate: the “large … number / size observed” value in assay [1] is given as “reduction in large crystals”.

Turning to `O=C(O)C(O)c1ccc(Br)cc1` (stereo not shown) [4-bromomandelic acid], in assay [1] (setting [3]), the “crystal habit / form of material observed” value was “absence of plate like structures” and the “large … number / size observed” value is listed as “larger sized crystals being formed”.

Regarding `O=C([O-])[C@H](O)[C@@H](O)[C@H](O[C@@H]1O[C@H](CO)[C@H](O)[C@H](O)[C@H]1O)[C@H](O)CO.O=C([O-])[C@H](O)[C@@H](O)[C@H](O[C@@H]1O[C@H](CO)[C@H](O)[C@H](O)[C@H]1O)[C@H](O)CO.[Ca+2]` [lactobionic acid hemi calcium salt], the “large … number / size observed” value in assay [1] (setting [3]) is recorded as “presence of very large crystals in some wells”.

Turning to `O=C(O)C1OC(C(=O)O)C(C(=O)O)C1C(=O)O` (stereo not shown) [tetrahydrofuran-2,3,4,5-tetracarboxylic acid], in assay [1] (setting [3]), the “large … number / size observed” value is “reduced number of intermediate to large crystals” and the “small crystals: number observed” value is on record as “increased number of small crystals”.

Turning to `O=C(O)C(O)c1ccccc1` (stereo not shown) [mandelic acid], the “overall effect on calcium oxalate crystals (number of crystals)” value in assay [1] (setting [3]) is reported as “little effect”.

Consider `COc1ccc2c(c1)c(CC(=O)O)c(C)n2C(=O)c1ccc(Cl)cc1` [indomethacin, reference compound], for which, in assay [1] (setting [3]), the “large … number / size observed” value is listed as “reduction in the number of large crystals” and the “small crystals: number observed” value is listed as “little change in the number of small crystals”.

With `CCCN(CCC)S(=O)(=O)c1ccc(C(=O)O)cc1` [probenicid, reference compound], in assay [1] (setting [3]), the “overall effect on calcium oxalate crystals (number of crystals)” value is listed as “little effect” and the “small crystals: number observed” value is given as “a few more small crystals”.

With `O=C(O)CNC(=O)c1ccccc1` [hippuric acid], the “overall effect on calcium oxalate crystals (number of crystals)” value in assay [1] (setting [3]) is “little effect”.
